The target in assay [1] is T1, rat Nav1.4 α-subunit (Rattus norvegicus, UniProt P15390). The experiment in a line: whole-cell patch clamp, peak INa. The assay is classed as cell-based.
For assay [2], the target named is T1, rat Nav1.4 α-subunit. Nature of the assay: whole-cell patch clamp, peak INa. The class given is cell-based. This is another data set of the same source.

Results on 4 molecules are retold here after article PMC2699670 (Anesthesiology, 2009).

T1 sequence (P15390 whole entry): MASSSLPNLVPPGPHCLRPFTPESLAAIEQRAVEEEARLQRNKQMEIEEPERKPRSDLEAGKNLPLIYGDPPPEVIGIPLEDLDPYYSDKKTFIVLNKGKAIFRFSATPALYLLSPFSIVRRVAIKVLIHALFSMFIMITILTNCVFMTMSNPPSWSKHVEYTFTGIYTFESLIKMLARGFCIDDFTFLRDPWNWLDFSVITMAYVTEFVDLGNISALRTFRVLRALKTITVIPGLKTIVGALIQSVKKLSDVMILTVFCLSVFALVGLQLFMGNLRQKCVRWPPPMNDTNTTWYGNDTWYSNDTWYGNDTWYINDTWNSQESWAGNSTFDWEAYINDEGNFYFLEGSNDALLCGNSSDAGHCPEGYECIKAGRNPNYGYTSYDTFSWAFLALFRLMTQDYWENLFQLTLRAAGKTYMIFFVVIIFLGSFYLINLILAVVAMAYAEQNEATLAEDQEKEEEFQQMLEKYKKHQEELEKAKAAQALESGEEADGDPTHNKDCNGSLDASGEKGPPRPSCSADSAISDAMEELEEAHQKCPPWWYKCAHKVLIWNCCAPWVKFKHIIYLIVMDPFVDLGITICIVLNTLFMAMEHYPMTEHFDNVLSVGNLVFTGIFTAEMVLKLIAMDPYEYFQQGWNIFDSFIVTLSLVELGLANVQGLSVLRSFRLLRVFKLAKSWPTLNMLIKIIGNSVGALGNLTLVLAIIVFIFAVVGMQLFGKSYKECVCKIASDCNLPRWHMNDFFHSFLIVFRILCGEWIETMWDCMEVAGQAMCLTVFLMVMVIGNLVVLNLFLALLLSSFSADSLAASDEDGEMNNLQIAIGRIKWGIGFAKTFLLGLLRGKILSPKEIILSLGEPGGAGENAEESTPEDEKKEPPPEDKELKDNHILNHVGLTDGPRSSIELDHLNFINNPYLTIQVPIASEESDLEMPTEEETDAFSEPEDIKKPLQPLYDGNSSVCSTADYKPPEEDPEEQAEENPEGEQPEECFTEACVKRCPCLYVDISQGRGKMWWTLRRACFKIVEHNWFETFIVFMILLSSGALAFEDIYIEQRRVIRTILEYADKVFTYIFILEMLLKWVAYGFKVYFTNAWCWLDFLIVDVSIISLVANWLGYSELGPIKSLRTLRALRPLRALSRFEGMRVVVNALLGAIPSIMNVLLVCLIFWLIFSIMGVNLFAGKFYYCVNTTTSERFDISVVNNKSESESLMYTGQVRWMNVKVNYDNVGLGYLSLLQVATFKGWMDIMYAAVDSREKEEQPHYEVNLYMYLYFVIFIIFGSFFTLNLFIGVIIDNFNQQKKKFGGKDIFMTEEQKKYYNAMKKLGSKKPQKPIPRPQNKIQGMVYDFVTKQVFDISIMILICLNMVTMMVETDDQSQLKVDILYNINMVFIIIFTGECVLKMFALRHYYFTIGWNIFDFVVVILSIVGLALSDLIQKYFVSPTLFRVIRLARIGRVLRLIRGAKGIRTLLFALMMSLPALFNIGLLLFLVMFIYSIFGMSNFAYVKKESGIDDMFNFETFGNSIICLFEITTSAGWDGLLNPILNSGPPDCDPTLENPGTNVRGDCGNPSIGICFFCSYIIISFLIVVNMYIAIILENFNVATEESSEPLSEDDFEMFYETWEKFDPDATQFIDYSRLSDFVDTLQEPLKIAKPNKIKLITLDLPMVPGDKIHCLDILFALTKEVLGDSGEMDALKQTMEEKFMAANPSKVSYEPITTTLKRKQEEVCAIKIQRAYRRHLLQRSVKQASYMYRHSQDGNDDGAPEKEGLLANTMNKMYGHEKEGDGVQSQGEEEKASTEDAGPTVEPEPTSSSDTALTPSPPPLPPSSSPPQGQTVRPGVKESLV

Turning to `FC(F)OC(F)(F)C(F)Cl` (centres unmarked) [enflurane], the inhibition at 820 µM at rat Nav1.4 α-subunit [1] (read-out: % inhibition at 0.82 mM) was 32 ± 6.7%. In the case of `FC(F)(F)C(Cl)Br` (centres unmarked) [halothane], the inhibition at 420 µM on rat Nav1.4 α-subunit [1] (read-out: % inhibition at 0.42 mM) is 32 ± 3.5%.

With `FC(F)OC(Cl)C(F)(F)F` (centres unmarked) [isoflurane], the IC50 against rat Nav1.4 α-subunit [2] is 1160 µM. For the same molecule, on rat Nav1.4 α-subunit [1] (read-out: % inhibition at 0.46 mM), the inhibition at 460 µM was determined as 19 ± 1.9%. For `FCOC(C(F)(F)F)C(F)(F)F` [sevoflurane], the inhibition at 440 µM at rat Nav1.4 α-subunit [1] (read-out: % inhibition at 0.44 mM) was found to be 17 ± 3.3%.
